# From publication PMC9176665, “Legumain/pH dual-responsive lytic peptide–paclitaxel conjugate for synergistic cancer therapy” (Drug Delivery, 2022)
# What was measured:
# Assay type in all cases: cell-based
# HCT116 tumor spheroid = experiment: Inhibition of tumor spheroid growth; conditions: equivalent 0.05 µg/mL PTX, 9th day
# Experimental: (§1) MCF-7 cells and HCT116 cells were dispersed in culture medium containing 10% methylcellulose (0.24%, w/v) at a density of around 1 × 10^5 cells/mL. Twenty microliters of the above medium was equably dropped on the lid of a […] cell culture dish and incubated at 37 °C for 24 h. When the tumor spheroids were formed, they were removed to 96-well plates which were pre-coated with agarose. After incubation for 72 h, MCF-7 tumor spheroid was treated with PPP and free PTX at equivalent 0.1 µg/mL PTX and HCT116 tumor spheroid was treated with PPP and free PTX at equivalent 0.05 µg/mL PTX. […] Measured with maximum diameter (dmax) and minimum diameter (dmin), the tumor spheroid volume was calculated by the following equation: V=[…], and the negative control tumor spheroids grew up in culture medium.
# MCF-7 tumor spheroid = experiment: Inhibition of tumor spheroid growth; conditions: MCF-7 spheroids, equivalent 0.1 µg/mL PTX, 9th day
# Experimental: as §1
# 4T1 cells = experiment: MTT cytotoxicity assay; conditions: Mus musculus, 72 h, PTX concentration, n = 5
# Experimental: (§2) MCF-7 cells, HCT116 cells, and 4T1 cells were seeded in 96-well plates at a density of 3 × 10^3/well. After 12 h, cancer cells were incubated with free PTX and PPP micelles with a PTX concentration from 0.001 µg/mL to 10 µg/mL in 200 µL culture mediums for 72 h. One hundred microliters of culture medium containing 10 µL MTT (5 mg/mL) was added to each well for another 4 h in the dark. The absorbance was measured at 570 nm by a microplate reader (Flexstation 3, Molecular Devices LLC, Sunnyvale, CA). Comparing treated wells with controlled wells, the cell viability was analyzed as mean ± SD (n = 5). In order to confirm the enzyme responsiveness of AAN between the mPEG and PTP-7, MTT assay was used to indirectly observe the cytotoxicity of PTP-7 cleaved by legumain. One microgram of recombinant mouse legumain (Abcam, Cambridge, UK) was activated in a buffer solution (pH 4.5) which contains 50 mM critic acid, 1 mM DTT, and 1 mM EDTA (Zhou et al., [2017]). Then, PP was dissolved in the legumain solution and incubated at 37 °C for 12 h. Next, culture medium containing 0.1–100 µg/mL of free PTP-7 or legumain treated mPEG-PTP-7 was added to cancer cells. After incubation for 24 h, the cell viability was calculated as above.
# (§3) The cell lines were purchased from China Center for Type Culture Collection (Wuhan, China). MCF-7 and HCT116 cells were cultivated in DMEM and 1640 with 10% FBS and 1% PS. 4T1 cells were cultivated in 1640 containing 1% glutaMAX^TM-1, 1% MEM NEAA, 1% sodium pyruvate, 10% FBS and 1% PS. All cell lines were incubated in incubator at 37℃ and 5% CO2. All qualified mice were purchased from Hangzhou Medical College and fostered in laboratory animals and all animal experiments followed the ethical requirements set by the ethics committee of Zhejiang University of Technology (20210511034).
# HCT116 cells = experiment: MTT cytotoxicity assay; conditions: Homo sapiens, HCT-116, 72 h, PTX concentration, n = 5
# Experimental: as §2, §3
# MCF-7 cells = experiment: MTT cytotoxicity assay; conditions: Homo sapiens, MCF7, 72 h, PTX concentration, n = 5
# Experimental: as §2, §3
smiles,measurement,setting,value
"CC(=O)O[C@H]1C(=O)[C@@]2(C)[C@H]([C@H](OC(=O)c3ccccc3)[C@]3(O)C[C@H](OC(=O)[C@H](O)[C@@H](NC(=O)c4ccccc4)c4ccccc4)C(C)=C1C3(C)C)[C@]1(OC(C)=O)CO[C@@H]1C[C@@H]2O [PTX, Paclitaxel]",inhibition of spheroids (volume),HCT116 tumor spheroid,20.51%
same,inhibition of spheroids (volume),MCF-7 tumor spheroid,47.88%
same,IC50,4T1 cells,0.01 µg/mL
same,IC50,HCT116 cells,0.006 µg/mL
same,IC50,MCF-7 cells,0.028 µg/mL
